Results: ChEMBL document CHEMBL1150752, “Inhibition of cow's milk xanthine oxidase by flavonoids” (J Nat Prod, 1988)

Target: Xanthine dehydrogenase/oxidase (Bos taurus, UniProt P80457)
Experiment: Inhibition of cow milk xanthine oxidase at 50 ug/mL
Details: cattle

Sequence of Xanthine dehydrogenase/oxidase (P80457 whole entry): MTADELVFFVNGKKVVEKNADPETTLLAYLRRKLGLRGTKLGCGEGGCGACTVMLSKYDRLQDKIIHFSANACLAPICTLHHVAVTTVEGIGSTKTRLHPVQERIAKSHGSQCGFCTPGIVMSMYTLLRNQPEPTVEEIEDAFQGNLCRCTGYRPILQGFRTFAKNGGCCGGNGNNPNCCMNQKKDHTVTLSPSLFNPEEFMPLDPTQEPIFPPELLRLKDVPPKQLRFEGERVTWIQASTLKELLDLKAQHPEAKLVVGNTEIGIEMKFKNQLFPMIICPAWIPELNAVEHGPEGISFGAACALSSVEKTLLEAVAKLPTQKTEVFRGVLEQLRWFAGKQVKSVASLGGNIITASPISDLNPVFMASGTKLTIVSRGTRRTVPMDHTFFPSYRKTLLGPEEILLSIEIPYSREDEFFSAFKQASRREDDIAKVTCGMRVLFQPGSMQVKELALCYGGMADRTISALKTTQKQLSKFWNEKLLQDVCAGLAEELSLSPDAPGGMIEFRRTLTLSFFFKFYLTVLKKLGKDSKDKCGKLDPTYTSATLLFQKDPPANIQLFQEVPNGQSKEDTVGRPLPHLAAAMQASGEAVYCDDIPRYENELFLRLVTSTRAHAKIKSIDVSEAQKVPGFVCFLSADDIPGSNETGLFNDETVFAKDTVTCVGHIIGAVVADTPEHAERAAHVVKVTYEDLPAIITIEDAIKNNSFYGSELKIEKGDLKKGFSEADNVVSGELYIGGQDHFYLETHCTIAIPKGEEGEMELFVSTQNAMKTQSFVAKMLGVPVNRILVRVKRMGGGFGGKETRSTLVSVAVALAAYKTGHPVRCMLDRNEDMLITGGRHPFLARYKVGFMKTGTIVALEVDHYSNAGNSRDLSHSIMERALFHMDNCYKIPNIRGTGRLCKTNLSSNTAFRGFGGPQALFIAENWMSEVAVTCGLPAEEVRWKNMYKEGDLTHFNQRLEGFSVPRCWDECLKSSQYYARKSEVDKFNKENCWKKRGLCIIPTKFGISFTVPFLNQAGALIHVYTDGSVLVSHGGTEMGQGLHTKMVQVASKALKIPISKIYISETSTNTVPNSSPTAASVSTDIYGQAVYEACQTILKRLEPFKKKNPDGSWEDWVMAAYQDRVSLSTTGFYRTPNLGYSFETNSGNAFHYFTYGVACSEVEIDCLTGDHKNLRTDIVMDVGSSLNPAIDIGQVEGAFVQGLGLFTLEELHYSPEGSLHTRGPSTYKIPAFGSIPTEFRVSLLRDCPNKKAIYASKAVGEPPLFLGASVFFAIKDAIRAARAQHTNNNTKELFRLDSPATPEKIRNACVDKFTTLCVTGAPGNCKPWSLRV

SMILES | inhibition at 50 µg/mL
CC(=O)Oc1cc(OC(C)=O)c2c(=O)c(OC(C)=O)c(-c3ccc(OC(C)=O)c(OC(C)=O)c3)oc2c1 | 0%
COc1ccc(-c2cc(=O)c3c(O)cc(O[C@@H]4O[C@H](CO[C@@H]5OC[C@@H](O)[C@@H](O)[C@@H]5O)[C@@H](O)[C@H](O)[C@H]4O)cc3o2)cc1O | 30.5%
O=C(O[C@H]1[C@H](Oc2c(-c3ccc(O)c(O)c3)oc3cc(O)cc(O)c3c2=O)O[C@H](CO)[C@@H](O)[C@@H]1O)c1cc(O)c(O)c(O)c1 | 21%
O=c1c(O)c(-c2ccc(O)cc2)oc2cc(O[C@@H]3O[C@H](CO)[C@@H](O)[C@H](O)[C@H]3O)cc(O)c12 | 0%
O=c1cc(-c2ccc(O)c(O)c2)oc2cc(O[C@@H]3O[C@H](CO)[C@@H](O)[C@H](O)[C@H]3O)c([C@@H]3O[C@H](CO)[C@@H](O)[C@H](O)[C@H]3O)c(O)c12 | 0%
CC(=O)Oc1cc(OC(C)=O)c2c(=O)c(OC(C)=O)c(-c3cc(OC(C)=O)c(OC(C)=O)c(OC(C)=O)c3)oc2c1 | 13.6%
CC(=O)Oc1ccc(-c2cc(=O)c3c(OC(C)=O)c(OC(C)=O)c(OC(C)=O)cc3o2)cc1 | 0%
COc1cc2oc(-c3ccc(O[C@@H]4O[C@H](CO)[C@@H](O)[C@H](O)[C@H]4O)c(O)c3)cc(=O)c2c(O)c1OC | 0%
COc1cc(-c2cc(=O)c3c(O)c(OC)c(OC)cc3o2)ccc1O[C@@H]1O[C@H](CO)[C@@H](O)[C@H](O)[C@H]1O | 0%
COc1ccc(-c2cc(=O)c3c(O)cc(O[C@@H]4O[C@H](CO)[C@@H](O)[C@H](O)[C@H]4O)cc3o2)cc1O | 28.9%
COc1cc(-c2cc(=O)c3c(O)cc(O[C@H]4O[C@@H](C(=O)O)[C@H](O)[C@@H](O)[C@@H]4O)cc3o2)ccc1O | 0.3%
CC(=O)Oc1cc(OC(C)=O)c2c(=O)cc(-c3ccc(OC(C)=O)c(OC(C)=O)c3)oc2c1 | 47.7%
O=C1c2c(O)cc(O)cc2O[C@H](c2ccc(O)c(O)c2)[C@H]1O [(+)-TAXIFOLIN] | 17.8%
COc1ccc(-c2cc(=O)c3c(O)cc(O[C@@H]4O[C@H](CO[C@@H]5O[C@@H](C)[C@H](O)[C@@H](O)[C@H]5O)[C@@H](O)[C@H](O)[C@H]4O)cc3o2)cc1 [ACACIIN] | 15.1%
O=c1cc(-c2ccc(O)cc2)oc2cc(O[C@@H]3O[C@H](CO)[C@@H](O)[C@H](O)[C@H]3O)cc(O)c12 [APIGETRIN] | 13.9%
C[C@@H]1O[C@@H](O[C@H]2C(=O)c3c(O)cc(O)cc3O[C@@H]2c2ccc(O)c(O)c2)[C@H](O)[C@H](O)[C@H]1O [ASTILBIN] | 0%

SMILES | inhibition at 50 µg/mL
O=c1c(O[C@@H]2O[C@@H](CO)[C@H](O)[C@H]2O)c(-c2ccc(O)c(O)c2)oc2cc(O)cc(O)c12 [AVICULARIN] | 30.8%
COc1cc2oc(-c3ccccc3)cc(=O)c2c(OC)c1OC [BAICALEIN TRIMETHYL ETHER] | 22%
COc1cc(-c2cc(=O)c3c(O)cc(O)cc3o2)ccc1O [CHRYSOERIOL] | 61.5%
COc1cc(-c2cc(=O)c3c(O)c(OC)c(OC)cc3o2)ccc1O [CIRSILENEOL] | 1%
COc1cc2oc(-c3ccc(O)c(O)c3)cc(=O)c2c(O)c1OC [CIRSILIOL] | 0.5%
COc1cc2oc(-c3ccc(O[C@@H]4O[C@H](CO)[C@@H](O)[C@H](O)[C@H]4O)cc3)cc(=O)c2c(O)c1OC [CIRSIMARIN] | 12.2%
COc1cc2oc(-c3ccc(O)cc3)cc(=O)c2c(O)c1OC [CIRSIMARITIN] | 0%
O=c1c(-c2ccc(O)cc2)coc2cc(O)ccc12 [DAIDZEIN] | 0%
O=c1c(-c2ccc(O)cc2)coc2cc(O[C@@H]3O[C@H](CO)[C@@H](O)[C@H](O)[C@H]3O)ccc12 [DAIDZIN] | 0%
COc1ccc(-c2cc(=O)c3c(O)cc(O[C@@H]4O[C@H](CO[C@@H]5O[C@@H](C)[C@H](O)[C@@H](O)[C@H]5O)[C@@H](O)[C@H](O)[C@H]4O)cc3o2)cc1O [DIOSMIN] | 0%
COc1ccc(-c2cc(=O)c3c(O)c([C@@H]4O[C@H](CO)[C@@H](O)[C@H](O)[C@H]4O)c(OC)cc3o2)cc1 [EMBIGENIN] | 33.5%
COc1ccc(-c2cc(=O)c3c(O)c([C@H]4O[C@H](CO)[C@@H](O)[C@H](O)[C@H]4O[C@H]4O[C@H](C)[C@@H](O)[C@H](O)[C@@H]4O)c(OC)cc3o2)cc1 [EMBININ] | 22.8%
O=C1C[C@@H](c2ccc(O)c(O)c2)Oc2cc(O)cc(O)c21 [ERIODICTYOL] | 47.8%
COc1c(O)cc2oc(-c3ccc(O)c(O)c3)cc(=O)c2c1O [EUPAFOLIN] | 49%
O=c1cc(-c2ccccc2)oc2ccccc12 [FLAVONE] | 15.4%
COc1cc(-c2oc3cc(O)cc(O)c3c(=O)c2O)ccc1O [ISORHAMNETIN] | 49%

More lines, now with the values ahead:

inhibition at 50 µg/mL | SMILES
17.6% | COc1ccc(-c2coc3cc(O)ccc3c2=O)cc1 [FORMONONETIN]
27.2% | O=C1c2ccc(O)cc2O[C@H](c2ccc(O)c(O)c2)[C@H]1O [FUSTIN]
0% | O=c1c(-c2ccc(O)cc2)coc2cc(O)cc(O)c12 [GENISTEIN]
0.8% | O=c1c(-c2ccc(O)cc2)coc2cc(O[C@@H]3O[C@H](CO)[C@@H](O)[C@H](O)[C@H]3O)cc(O)c12 [GENISTIN]
43% | O=c1c(O[C@@H]2O[C@H](CO)[C@H](O)[C@H](O)[C@H]2O)c(-c2ccc(O)c(O)c2)oc2cc(O)cc(O)c12 [HYPEROSIDE]
0% | COc1cc(-c2coc3cc(O[C@@H]4O[C@H](CO)[C@@H](O)[C@H](O)[C@H]4O)c(OC)c(O)c3c2=O)cc(O)c1OC [IRIDIN]
0% | COc1cc(-c2coc3cc(O)c(OC)c(O)c3c2=O)cc(O)c1OC [IRIGENIN]
0% | COc1cc(-c2coc3cc4c(c(OC)c3c2=O)OCO4)cc(OC)c1OC [IRISFLORENTIN]
0% | COc1c2c(cc3occ(-c4ccc(O)cc4)c(=O)c13)OCO2 [IRISOLONE]
0% | COc1ccc(-c2coc3cc(O)c(OC)c(O)c3c2=O)cc1O [IRISTECTORIGENIN A]
25.2% | O=c1cc(-c2ccc(O)c(O)c2)oc2cc(O)c([C@@H]3O[C@H](CO)[C@@H](O)[C@H](O)[C@H]3O)c(O)c12 [ISOORIENTIN]
0% | O=c1c(O[C@@H]2O[C@@H](CO)[C@H](O)[C@H]2O)c(-c2ccc(O)cc2)oc2cc(O)cc(O)c12 [JUGLANIN]
0% | COc1cc2oc(-c3ccc(O)cc3)c(O)c(=O)c2c(O)c1[C@@H]1O[C@H](CO)[C@@H](O)[C@H](O)[C@H]1O [KEYAKININ]
18% | O=C1C[C@@H](c2ccc(O[C@@H]3O[C@H](CO)[C@@H](O)[C@H](O)[C@H]3O)cc2)Oc2cc(O)ccc21 [LIQUIRITIN]
100% | O=C1C[C@@H](c2ccc(O)cc2)Oc2cc(O)ccc21 [LIQUIRTIGENIN]
20.1% | C[C@@H]1O[C@@H](O[C@H]2[C@H](Oc3cc(O)c4c(=O)cc(-c5ccc(O)c(O)c5)oc4c3)O[C@H](CO)[C@@H](O)[C@@H]2O)[C@H](O)[C@H](O)[C@H]1O [LONICERIN]
